Marks after values point to notes of the source that are not given here.
Test: ITE toxicity monitoring, 7-day i.p. dosing of ITE nano-suspension in C57BL/6 mice
Type: in vivo
Conditions: for #LYMPH / #NEUT / ALT / AST / BUN / NEUT / PLT / TP / WBC: group mean
Procedure: ITE nano-suspension was prepared by milling ITE powder in water containing 1% CMC-Na (sodium carboxymethyl cellulose), 0.5% SLS (sodium lauryl sulfate), 0.085% PVP K90 (polyvinylpyrrolidone K90), and 0.2% Benzoate with a Media Wet Milling Machine (Dispermat SL-nano, WAB Willy A. Bachofen A G, Muttenz, Switzerland) until reached a desired size range. The particle size was determined by a Laser Diffraction Particle Size Analyzer (MS2000, Malvern Instruments, Worcestershire, UK). The parameters of particle sizes were determined as D10 (diameter of 10% of particles)=67 nm, D50=114 nm, and D90=207 nm. The nano-suspension thus prepared was stored at 4° C. until use.
Female C57BL/6 mice, 6 to 8 week old, were randomly assigned to 4 dose groups (0, 20, 100, and 500 mg/kg b.w.) each with 6 animals. ITE nano-suspension was administered by i.p. injection once daily for 7 consecutive days. Mortality, clinical signs, body weight, and food consumption were recorded. Data on hematology (3 of 6 mice) and serum chemistry (the other 3 of 6 mice) were collected. TK (Toxicokinetic) parameters were determined as described in Example 1 and plasma levels of ITE at both 1 and 3 hr. post dosing on day 1, 3, and 7 were measured. A gross observation of major organs at necropsy was conducted.

[1] = 20 mg/kg ITE nano-suspension i.p. once daily 7 days
[2] = 100 mg/kg ITE nano-suspension i.p. once daily 7 days
[3] = 500 mg/kg ITE nano-suspension i.p. once daily 7 days
[4] = ITE nano-suspension 20, 100, 500 mg/kg b.w. i.p. once daily for 7 days

## COC(=O)c1csc(C(=O)c2c[nH]c3ccccc23)n1 [ITE, 2-(1′H-indole-3′-carbonyl)-thiazole-4-carboxylic acid methyl ester]
20 mg/kg (low dose) group
  BUN raised over vehicle: 1.4 folds
[1]
  #LYMPH: 3.35 ×10^9 cells
  #NEUT: 1.08 ×10^9 cells
  ALT: 43.2 U/L
  AST: 118.1 U/L
  BUN: 10.5* mmol/L
  NEUT: 23.3%
  PLT: 435 ×10^9 cells
  TP: 39.5 g/L
  WBC: 4.68 ×10^9 cells
100 mg/kg (mid) group
  WBC raised: 2.6 folds
[2]
  #LYMPH: 3.5 ×10^9 cells
  #NEUT: 3.62 ×10^9 cells
  ALT: 33.2 U/L
  AST: 131.6 U/L
  BUN: 7.3 mmol/L
  NEUT: 46.6%
  PLT: 668 ×10^9 cells
  TP: 40.8 g/L
  WBC: 10.77* ×10^9 cells
500 mg/kg (high dose) group
  ALT raised over vehicle control: 3.2 folds
  TP (total protein) raised over vehicle control: 1.2 folds
500 mg/kg (high dose) group, not significant
  AST raised over vehicle control: 1.8 folds
500 mg/kg (high) group, not significant
  WBC raised: 2.0 folds
[3]
  #LYMPH: 4.81 ×10^9 cells
  #NEUT: 3.4 ×10^9 cells
  ALT: 74.5* U/L
  AST: 151.2 U/L
  BUN: 9.1 mmol/L
  NEUT: 40.5%
  PLT: 1075 ×10^9 cells
  TP: 49.5* g/L
  WBC: 8.38 ×10^9 cells
[4]
  body weight loss: no significant body weight loss
  mortality: no mortality observed except that one mouse in 20 mg/kg b.w. (low dose) group died
All 3 ITE treated groups, day 1 of the study
  food consumption: dramatic decrease in food consumption
All the ITE treated groups
  major organ inspection at necropsy: No abnormality was observed
